Experimental data: ChEMBL document CHEMBL1201862, “PubChem BioAssay data set” (2004)
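Briefly, cells in 96-well plates were exposed to five compound concentrations for 48 h, and endpoints were estimated by linear interpolation. GI50: concentration for 50% inhibition of growth.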 Calls of active or inactive are those of the source. No stated cut-off is given here; in the data, active = GI50 up to about 1.1 µM and inactive = higher.

Columns and labels:
Assay in all cases: inhibition of tumour cell growth, NCI panel, 48 h
Hs-578T = system: Hs-578T
SNB-75 = system: SNB-75
SF-295 = system: SF-295
HL-60 = system: HL-60
UO-31 = system: UO-31
RXF 393 = system: RXF 393
MDA-MB-231 = system: MDA-MB-231
NCI/ADR-RES = system: NCI/ADR-RES
MDA-N = system: MDA-N
A498 = system: A498
SR = system: SR
HCT-116 = system: HCT-116
RPMI-8226 = system: RPMI-8226
PC-3 = system: PC-3
NCI-H522 = system: NCI-H522
OVCAR-4 = system: OVCAR-4
HOP-62 = system: HOP-62
HCT-15 = system: HCT-15
MOLT-4 = system: MOLT-4

| SMILES | GI50 (Hs-578T) | GI50 (SNB-75) | GI50 (SF-295) | GI50 (HL-60) | GI50 (UO-31) | GI50 (RXF 393) | GI50 (MDA-MB-231) | GI50 (NCI/ADR-RES) | GI50 (MDA-N) | GI50 (A498) | GI50 (SR) | GI50 (HCT-116) | GI50 (RPMI-8226) | GI50 (PC-3) | GI50 (NCI-H522) | GI50 (OVCAR-4) | GI50 (HOP-62) | GI50 (HCT-15) [µM] | GI50 (MOLT-4) |
| --- | --- | --- | --- | --- | --- | --- | --- | --- | --- | --- | --- | --- | --- | --- | --- | --- | --- | --- | --- |
| Nc1ccccc1.O=P(O)(O)c1ccccc1 | > 100 µM (inactive) | 17.6 µM (inactive) | > 100 µM (inactive) | > 100 µM (inactive) | > 100 µM (inactive) | > 100 µM (inactive) | > 100 µM (inactive) | > 100 µM (inactive) | > 100 µM (inactive) | > 100 µM (inactive) | > 100 µM (inactive) | > 100 µM (inactive) | > 100 µM (inactive) | > 100 µM (inactive) | > 100 µM (inactive) | > 100 µM (inactive) | > 100 µM (inactive) | > 100 | – |
| COc1ccc2c(c1)CCCC(Br)C2=O (stereo unspecified) | 17.1 µM (inactive) | 12.6 µM (inactive) | 3.99 µM (inactive) | 3.59 µM (inactive) | 2.17 µM (inactive) | 4.78 µM (inactive) | 2.92 µM (inactive) | 4.34 µM (inactive) | 2.88 µM (inactive) | 19.6 µM (inactive) | 0.294 µM (active) | 0.407 µM (active) | 2.34 µM (inactive) | 3.9 µM (inactive) | 0.265 µM (active) | 6.52 µM (inactive) | 5.55 µM (inactive) | 0.929 | 0.136 µM (active) |
| CC(C)c1ccc(C(c2c(O)oc3ccccc3c2=O)c2c(O)oc3ccccc3c2=O)cc1 | 25.6 µM (inactive) | 25.9 µM (inactive) | 20 µM (inactive) | 6.03 µM (inactive) | 13.8 µM (inactive) | 21.8 µM (inactive) | 21.4 µM (inactive) | 22.3 µM (inactive) | 21.5 µM (inactive) | 17.7 µM (inactive) | 9.64 µM (inactive) | 17 µM (inactive) | 17.7 µM (inactive) | 19 µM (inactive) | 20 µM (inactive) | 28.4 µM (inactive) | 21.4 µM (inactive) | 19.1 | 6.55 µM (inactive) |
| Cc1ccc(S(=O)(=O)N/C(=C\C=C\c2ccccc2)C(=O)C(C)(C)C)cc1 | 35.1 µM (inactive) | 56.2 µM (inactive) | 75 µM (inactive) | > 100 µM (inactive) | > 100 µM (inactive) | 37.8 µM (inactive) | 29.9 µM (inactive) | 42.3 µM (inactive) | > 100 µM (inactive) | 89.5 µM (inactive) | > 100 µM (inactive) | > 100 µM (inactive) | 0.492 µM (active) | 75.2 µM (inactive) | 59 µM (inactive) | 35.2 µM (inactive) | 19.5 µM (inactive) | > 100 | > 100 µM (inactive) |
| C=C(C)C1CC2=C(C(=O)OC)C=C(O2)C(C(=C)C)[C@@H]2OC(=O)/C(=C\C1O)[C@H]2N(C)C (stereo partly specified) | 18.9 µM (inactive) | 14.6 µM (inactive) | 17.5 µM (inactive) | 2.82 µM (inactive) | 13.4 µM (inactive) | 5.02 µM (inactive) | 21.5 µM (inactive) | 8.07 µM (inactive) | 11.4 µM (inactive) | 17.1 µM (inactive) | 6.92 µM (inactive) | 13.8 µM (inactive) | 3.23 µM (inactive) | 11.4 µM (inactive) | 2.91 µM (inactive) | 5.64 µM (inactive) | 19.4 µM (inactive) | 5.97 | – |
| COC12C=CC(CC1)C(C)(C)C2=O (stereo unspecified) | > 100 µM (inactive) | > 100 µM (inactive) | > 100 µM (inactive) | > 100 µM (inactive) | > 100 µM (inactive) | > 100 µM (inactive) | > 100 µM (inactive) | > 100 µM (inactive) | > 100 µM (inactive) | > 100 µM (inactive) | > 100 µM (inactive) | > 100 µM (inactive) | > 100 µM (inactive) | > 100 µM (inactive) | > 100 µM (inactive) | > 100 µM (inactive) | > 100 µM (inactive) | > 100 | > 100 µM (inactive) |
| CC(C)[Si](OC1=CCCCCC12C(=O)N(C)c1ccccc12)(C(C)C)C(C)C (stereo unspecified) | 21.6 µM (inactive) | 13.5 µM (inactive) | 13.5 µM (inactive) | 17.1 µM (inactive) | 21.3 µM (inactive) | 8.77 µM (inactive) | 22.4 µM (inactive) | 18.8 µM (inactive) | 28.4 µM (inactive) | 15.8 µM (inactive) | 29.9 µM (inactive) | – | 15.1 µM (inactive) | 25.5 µM (inactive) | 16.9 µM (inactive) | 24.7 µM (inactive) | 21.6 µM (inactive) | 17.6 | 32.5 µM (inactive) |
| O=C(O)C(Cc1ccc2c(c1)CCC2)(Cc1ccc2c(c1)CCC2)C(=O)O | > 100 µM (inactive) | > 100 µM (inactive) | > 100 µM (inactive) | > 100 µM (inactive) | > 100 µM (inactive) | > 100 µM (inactive) | 29.2 µM (inactive) | > 100 µM (inactive) | > 100 µM (inactive) | > 100 µM (inactive) | > 100 µM (inactive) | > 100 µM (inactive) | > 100 µM (inactive) | > 100 µM (inactive) | > 100 µM (inactive) | > 100 µM (inactive) | > 100 µM (inactive) | > 100 | > 100 µM (inactive) |
| Nc1ccc(Oc2ccc(C3(c4ccc(Oc5ccc(N)cc5)cc4)C4CC5CC(C4)CC3C5)cc2)cc1 | > 22.1 µM (inactive) | 54 µM (inactive) | 6.76 µM (inactive) | 5 µM (inactive) | 3.01 µM (inactive) | 6.3 µM (inactive) | 17 µM (inactive) | 15.8 µM (inactive) | 6.32 µM (inactive) | 2.91 µM (inactive) | 3.42 µM (inactive) | 0.782 µM (active) | 3 µM (inactive) | 5.7 µM (inactive) | 11 µM (inactive) | 8.71 µM (inactive) | 11.8 µM (inactive) | 4.94 | 4.27 µM (inactive) |
| CN(/N=C/c1cccc2cccnc12)c1ccc(Cl)cc1[N+](=O)[O-] | 81.5 µM (inactive) | > 100 µM (inactive) | > 100 µM (inactive) | > 100 µM (inactive) | > 100 µM (inactive) | > 100 µM (inactive) | > 100 µM (inactive) | 87.1 µM (inactive) | > 100 µM (inactive) | > 100 µM (inactive) | > 100 µM (inactive) | > 100 µM (inactive) | > 100 µM (inactive) | > 100 µM (inactive) | > 100 µM (inactive) | > 100 µM (inactive) | > 100 µM (inactive) | > 100 | 76.7 µM (inactive) |
| COC(=O)c1ccc(/C=C2\CCc3ccccc3C2=O)cc1 | > 100 µM (inactive) | > 100 µM (inactive) | > 100 µM (inactive) | > 100 µM (inactive) | > 100 µM (inactive) | > 100 µM (inactive) | > 100 µM (inactive) | > 100 µM (inactive) | > 100 µM (inactive) | 34.4 µM (inactive) | > 100 µM (inactive) | > 100 µM (inactive) | > 100 µM (inactive) | > 100 µM (inactive) | 69.7 µM (inactive) | > 100 µM (inactive) | > 100 µM (inactive) | > 100 | > 100 µM (inactive) |
| C=CC(C)(C)/C(=C\CO[Si](C(C)C)(C(C)C)C(C)C)C(=O)N(C)c1ccccc1I | 11.8 µM (inactive) | 16.3 µM (inactive) | 13 µM (inactive) | 1.73 µM (inactive) | 12.8 µM (inactive) | 11.4 µM (inactive) | 13.3 µM (inactive) | 19.5 µM (inactive) | 16.4 µM (inactive) | 20.3 µM (inactive) | 6.81 µM (inactive) | 3.13 µM (inactive) | 2.96 µM (inactive) | 2.71 µM (inactive) | 5.62 µM (inactive) | 23 µM (inactive) | 16.3 µM (inactive) | 16.4 | 9.79 µM (inactive) |
| COC(=O)c1c(C(=O)OC)c2ccccn2c1-c1cc(OC)c(Br)c(=O)o1 | 37.2 µM (inactive) | 15.1 µM (inactive) | > 100 µM (inactive) | > 100 µM (inactive) | > 100 µM (inactive) | > 100 µM (inactive) | 83.8 µM (inactive) | > 100 µM (inactive) | > 100 µM (inactive) | > 100 µM (inactive) | > 100 µM (inactive) | > 100 µM (inactive) | > 100 µM (inactive) | > 100 µM (inactive) | 68.7 µM (inactive) | > 100 µM (inactive) | > 100 µM (inactive) | > 100 | > 100 µM (inactive) |
| CC(=O)O[C@H]1C(=O)[C@@]2(C)[C@H]([C@H](OC(=O)c3ccccc3)[C@]3(O)C[C@H](OC(=O)[C@H](O)[C@@H](NC(=O)c4ccoc4)c4ccccc4)C(C)=C1C3(C)C)[C@]1(OC(C)=O)CO[C@@H]1C[C@@H]2O | 0.0246 µM (active) | 0.0112 µM (active) | < 0.01 µM (active) | 0.0136 µM (active) | 3.39 µM (inactive) | < 0.01 µM (active) | 0.0434 µM (active) | 44 µM (inactive) | 0.00361 µM (active) | 0.0713 µM (active) | 0.0355 µM (active) | 0.0147 µM (active) | 0.00871 µM (active) | 0.0212 µM (active) | < 0.01 µM (active) | 31.1 µM (inactive) | 0.212 µM (active) | 0.757 | 0.0332 µM (active) |
| Cc1cc(O)c2c(c1O)C(=O)c1c(O)ccc(O)c1C2=O [Cynodontin] | > 100 µM (inactive) | 52.5 µM (inactive) | > 100 µM (inactive) | > 100 µM (inactive) | – | > 100 µM (inactive) | > 100 µM (inactive) | > 100 µM (inactive) | > 100 µM (inactive) | > 100 µM (inactive) | > 100 µM (inactive) | > 100 µM (inactive) | > 100 µM (inactive) | > 100 µM (inactive) | > 100 µM (inactive) | > 100 µM (inactive) | > 100 µM (inactive) | > 100 | > 100 µM (inactive) |
